Results reported in patent EP0104857A1, “Deoxyuridine compounds, methods for preparing them and their use in medicine” (BEECHAM GROUP PLC, priority 1982, dated 1984).
Read-outs that look alike come from different tables or passages of the source.

Tests used:
[1] = tested on: Herpes simplex type 1 virus (HFEM strain); experiment: Plaque reduction assay in virus-infected Vero cells; format: cell-based; details: Human alphaherpesvirus 1, 96 h, concentration causing 50% reduction in number of virus plaques, HSV-1 HFEM strain, 4 days incubation at 37 C, read-out: PDD50 (the source's name)
Protocol: (§1) Vero (African Green Monkey Kidney) cells were grown to confluence in 24 well multidishes, each well being 1.6 cm in diameter. The cells were infected with Herpes simplex type 1 virus (HFEM strain) and overlaid with 0.5ml of 0.9% agarose (w/v) in maintenance medium. Test compounds prepared in maintenance medium in concentrations ranging from 100 to 0.03 pg/ml in half-log dilution steps, were added in 0.5ml volume. The virus infected cultures were then incubated at 37 °C for 4 days before fixing in 4% formaldehyde solution and staining with carbolfuchsin.

[2] = Cytotoxicity in the plaque reduction assay cultures; format: cell-based, African Green Monkey; details: monkey; minimum concentration of test compound which caused cytotoxicity; Vero cells, 4 days; highest concentration tested 100; read-out: MTD
Protocol: as §1

| SMILES | IC50 ([1]; molar units) [µM] | IC50 [1] [µg/mL] | MCC at 96 h [2] [µg/mL] |
| --- | --- | --- | --- |
| O=c1[nH]c(=O)n([C@H]2C[C@H](OC3CCCO3)[C@@H](COC3CCCO3)O2)cc1/C=C/Br (stereo partly drawn) [Example 1, 5-(E-2-Bromovinyl)-2'-deoxy-3',5'-bis-O-(tetrahydrofuran-2-yl)uridine] | 9 | 4.3 | > 100 |
| CCOC(CCl)OC[C@H]1O[C@@H](n2cc(/C=C/Br)c(=O)[nH]c2=O)C[C@@H]1O (stereo partly drawn) [Example 21, 5-(E-2-bromovinyl)-5'-0-(2-chloro-1-ethoxyethyl)-2'-deoxyuridine] | 43 | 19 | > 100 |
| O=c1[nH]c(=O)n([C@H]2C[C@H](OC3CCCO3)[C@@H](CO)O2)cc1/C=C/Br (stereo partly drawn) [Example 2, 5-(E-2-bromovinyl)-2'-deoxy-3'-O-(tetrahydrofuran-2-yl)uridine] | 2.8 | 1.1 | > 100 |
| CCOC(CCl)OC[C@H]1O[C@@H](n2cc(/C=C/Br)c(=O)[nH]c2=O)C[C@@H]1OC(CCl)OCC (stereo partly drawn) [Example 19, 5-(E-2-Bromovinyl)-3',5'-bis-0-(2-chloro-1-ethoxyethyl)-2'-deoxyuridine] | 17 | 9.1 | > 100 |
| O=c1[nH]c(=O)n([C@H]2C[C@H](OC3CCCCO3)[C@@H](COC3CCCCO3)O2)cc1/C=C/Br (stereo partly drawn) [Example 4, 5-(E-2-Bromovinyl)-2'-deoxy-3',5'-bis-O-(tetrahdropyropyran-2-yl)uridine] | 34 | 17 | 100 |
| O=c1[nH]c(=O)n([C@H]2C[C@H](O)[C@@H](COC3CCCCO3)O2)cc1/C=C/Br (stereo partly drawn) [Example 6, 5-(E-2-bromo-vinyl) -2'-deoxy-5'-O-(tetrahydropyran-2-yl) uridine] | 170 | 69 | > 100 |
| O=c1[nH]c(=O)n([C@H]2C[C@H](OC3CCCCO3)[C@@H](CO)O2)cc1/C=C/Br (stereo partly drawn) [Example 5, 5-(E-2-bromovinyl)-2'-deoxy-3'-O-(tetrahydropyran-2-yl)uridine] | 4.3 | 1.8 | > 100 |
| CCOC(CCl)O[C@H]1C[C@H](n2cc(/C=C/Br)c(=O)[nH]c2=O)O[C@@H]1CO (stereo partly drawn) [Example 20, 5-(E-2-bromovinyl)-3'-O-(2-chloro-1-ethoxyethyl)-2^1-deoxyuridine] | 7.5 | 3.3 | > 100 |
| O=c1[nH]c(=O)n([C@H]2C[C@H](OCOCc3ccccc3)[C@@H](COCOCc3ccccc3)O2)cc1/C=C/Br [Example 10, 3',5'-Bis-O-benzoxmethl-5-(E-2-bromovinyl)-2'-deoxuridine] | 126 | 72 | > 100 |
| O=c1[nH]c(=O)n([C@H]2C[C@H](O)[C@@H](COCOCc3ccccc3)O2)cc1/C=C/Br [Example 12, 5'-O-benzoxymethyl-5-(E-2-bromovinyl)-2'-deoxyuridine] | 15 | 6.6 | > 100 |
| CCOC(CC)OC[C@H]1O[C@@H](n2cc(/C=C/Br)c(=O)[nH]c2=O)C[C@@H]1O (stereo partly drawn) [Example 8, 5-(E-2-bromovinyl)-2'-deoxy-5'-O-(1-ethoxypropyl)uridine] | 15 | 6.4 | > 100 |
